≈ marks a conversion by molar mass, not a printed value.

What all share (format): functional
In one assay the test system is Fusarium oxysporum. Description: Antifungal activity against Fusarium oxysporum ATCC 28856 assessed as fungal growth inhibition incubated for 24 hrs by serial dilution method.
For a further assay, the system named is Candida albicans. Nature of the assay: Antifungal activity against Candida albicans SC5314 assessed as fungal growth inhibition incubated for 24 hrs by serial dilution method.
The subject of a further assay is Cryptococcus neoformans. Nature of the assay: Antifungal activity against Cryptococcus neoformans GOYJ11988 assessed as fungal growth inhibition incubated for 24 hrs by serial dilution method.

For the compound `C[C@@H]1C(=O)N2CCC[C@H]2[C@]2(O)O[C@@](C)(NC(=O)/C=C/c3ccccc3)C(=O)N12`, the MIC in the assay on Fusarium oxysporum was 25 µg/mL (≈ 64.9 µM); in the assay with Candida albicans, 40 µg/mL (≈ 104 µM); in the assay on Cryptococcus neoformans, 80 µg/mL (≈ 208 µM).

For the compound `C[C@@H]1C(=O)N2CCC[C@H]2[C@]2(O)O[C@@](CO)(NC(=O)/C=C/c3ccccc3)C(=O)N12`, the MIC with Fusarium oxysporum is 12.5 µg/mL (≈ 31.1 µM); in the assay on Candida albicans, 40 µg/mL (≈ 99.6 µM); in the assay on Cryptococcus neoformans, 80 µg/mL (≈ 199 µM).

For the origin of these results see ChEMBL document CHEMBL5126658, “Talaropeptins A and B, Tripeptides with an N-trans-Cinnamoyl Moiety from the Marine-Derived Fungus Talaromyces purpureogenus CX11” (2022).
